# From the NIST ThermoML archive (doi:10.1016/j.jct.2018.08.013)
# Where “and” joins values, the source holds several entries; their conditions need not be identical. Equal values may be shown once. Numbers after ± are expanded uncertainties.
# Experiment: specific heat capacity at constant pressure; xn = mol fraction of the nth substance listed
# Details: 100 kPa, Crystal of intercomponent compound 1, relaxation calorimetry, x2 = 0.486
structure (smiles),measurement,setting,value
[Te] [tellurium] + [Ga],specific heat capacity,14.14 K,12.49 ± 1 J/K/kg
same,specific heat capacity,14.15 K,12.53 ± 1 J/K/kg
same,specific heat capacity,16.16 K,17.22 ± 1.2 J/K/kg
same,specific heat capacity,16.18 K,17.24 ± 1.2 J/K/kg
same,specific heat capacity,18.17 K,22.39 ± 1.4 J/K/kg and 22.38 ± 1.4 J/K/kg
same,specific heat capacity,18.18 K,22.43 ± 1.4 J/K/kg
same,specific heat capacity,20.18 K,27.78 ± 1.6 J/K/kg
same,specific heat capacity,20.19 K,27.77 ± 1.6 J/K/kg
same,specific heat capacity,20.2 K,27.79 ± 1.6 J/K/kg
same,specific heat capacity,22.21 K,33.2 ± 1.7 J/K/kg
same,specific heat capacity,22.22 K,33.22 ± 1.7 J/K/kg
same,specific heat capacity,24.22 K,38.74 ± 1.9 J/K/kg
same,specific heat capacity,24.23 K,38.79 ± 1.9 J/K/kg
same,specific heat capacity,26.24 K,44.36 ± 2.1 J/K/kg and 44.33 ± 2.1 J/K/kg and 44.32 ± 2.1 J/K/kg
same,specific heat capacity,28.25 K,49.69 ± 2.3 J/K/kg
same,specific heat capacity,28.26 K,49.67 ± 2.3 J/K/kg
same,specific heat capacity,30.27 K,54.94 ± 2.5 J/K/kg
same,specific heat capacity,30.29 K,54.99 ± 2.5 J/K/kg
same,specific heat capacity,35.31 K,68.01 ± 2.9 J/K/kg
same,specific heat capacity,35.32 K,68.01 ± 2.9 J/K/kg
same,specific heat capacity,35.33 K,68.06 ± 2.9 J/K/kg
same,specific heat capacity,40.35 K,80.38 ± 3.4 J/K/kg
same,specific heat capacity,40.36 K,80.53 ± 3.4 J/K/kg and 80.38 ± 3.4 J/K/kg
same,specific heat capacity,45.39 K,92.13 ± 3.9 J/K/kg
same,specific heat capacity,45.41 K,91.88 ± 3.9 J/K/kg
same,specific heat capacity,50.41 K,103.44 ± 4.3 J/K/kg
same,specific heat capacity,50.43 K,103.49 ± 4.3 J/K/kg
same,specific heat capacity,50.46 K,103.13 ± 4.3 J/K/kg
same,specific heat capacity,55.45 K,113.77 ± 4.7 J/K/kg
same,specific heat capacity,55.46 K,113.98 ± 4.7 J/K/kg
same,specific heat capacity,55.5 K,113.47 ± 4.7 J/K/kg
same,specific heat capacity,60.48 K,123.56 ± 5.1 J/K/kg
same,specific heat capacity,60.5 K,123.56 ± 5.1 J/K/kg
same,specific heat capacity,60.52 K,123.05 ± 5.1 J/K/kg
same,specific heat capacity,65.51 K,133.13 ± 5.5 J/K/kg
same,specific heat capacity,65.54 K,132.63 ± 5.4 J/K/kg
same,specific heat capacity,65.55 K,133.08 ± 5.5 J/K/kg
same,specific heat capacity,70.55 K,141.95 ± 5.8 J/K/kg
same,specific heat capacity,70.56 K,141.34 ± 5.8 J/K/kg
same,specific heat capacity,70.6 K,141.7 ± 5.8 J/K/kg
same,specific heat capacity,75.58 K,149.91 ± 6.1 J/K/kg
same,specific heat capacity,75.59 K,149.2 ± 6.1 J/K/kg
same,specific heat capacity,75.64 K,149.81 ± 6.1 J/K/kg
same,specific heat capacity,80.61 K,157.76 ± 6.4 J/K/kg
same,specific heat capacity,80.63 K,157.11 ± 6.4 J/K/kg
same,specific heat capacity,80.67 K,157.61 ± 6.4 J/K/kg
same,specific heat capacity,85.63 K,164.86 ± 6.7 J/K/kg
same,specific heat capacity,85.64 K,164.2 ± 6.7 J/K/kg
same,specific heat capacity,85.72 K,164.66 ± 6.7 J/K/kg
same,specific heat capacity,90.68 K,171.5 ± 7 J/K/kg and 170.94 ± 6.9 J/K/kg
same,specific heat capacity,90.75 K,171.14 ± 7 J/K/kg
same,specific heat capacity,95.71 K,177.22 ± 7.2 J/K/kg and 176.31 ± 7.2 J/K/kg
same,specific heat capacity,95.78 K,176.62 ± 7.2 J/K/kg
same,specific heat capacity,100.78 K,185.08 ± 7.6 J/K/kg
same,specific heat capacity,100.82 K,184.52 ± 7.5 J/K/kg
same,specific heat capacity,100.86 K,184.88 ± 7.6 J/K/kg
same,specific heat capacity,105.73 K,192.73 ± 7.9 J/K/kg
same,specific heat capacity,105.87 K,191.31 ± 7.8 J/K/kg and 192.07 ± 7.8 J/K/kg
same,specific heat capacity,113.71 K,198.86 ± 8.1 J/K/kg
same,specific heat capacity,113.79 K,197.4 ± 8 J/K/kg
same,specific heat capacity,113.83 K,197.65 ± 8.1 J/K/kg
same,specific heat capacity,121.68 K,205.1 ± 8.3 J/K/kg
same,specific heat capacity,121.71 K,204.14 ± 8.3 J/K/kg
same,specific heat capacity,121.77 K,203.73 ± 8.3 J/K/kg
same,specific heat capacity,129.62 K,209.51 ± 8.5 J/K/kg
same,specific heat capacity,129.64 K,209.91 ± 8.5 J/K/kg
same,specific heat capacity,129.7 K,208.39 ± 8.5 J/K/kg
same,specific heat capacity,137.55 K,213.76 ± 8.7 J/K/kg
same,specific heat capacity,137.59 K,213.56 ± 8.7 J/K/kg
same,specific heat capacity,137.61 K,212.24 ± 8.6 J/K/kg
same,specific heat capacity,145.48 K,218.93 ± 8.9 J/K/kg
same,specific heat capacity,145.53 K,218.27 ± 8.9 J/K/kg
same,specific heat capacity,145.54 K,217.36 ± 8.8 J/K/kg
same,specific heat capacity,153.41 K,222.38 ± 9 J/K/kg
same,specific heat capacity,153.42 K,222.23 ± 9 J/K/kg
same,specific heat capacity,153.44 K,222.08 ± 9 J/K/kg
same,specific heat capacity,161.35 K,224.41 ± 9.1 J/K/kg and 224.26 ± 9.1 J/K/kg
same,specific heat capacity,161.36 K,224.31 ± 9.1 J/K/kg
same,specific heat capacity,169.28 K,227.5 ± 9.2 J/K/kg and 227.09 ± 9.2 J/K/kg
same,specific heat capacity,169.3 K,227.04 ± 9.2 J/K/kg
same,specific heat capacity,177.2 K,229.17 ± 9.3 J/K/kg and 228.87 ± 9.3 J/K/kg
same,specific heat capacity,177.22 K,228.92 ± 9.3 J/K/kg
same,specific heat capacity,185.1 K,230.89 ± 9.4 J/K/kg
same,specific heat capacity,185.14 K,230.79 ± 9.4 J/K/kg
same,specific heat capacity,185.15 K,230.59 ± 9.4 J/K/kg
same,specific heat capacity,193.03 K,233.63 ± 9.5 J/K/kg
same,specific heat capacity,193.06 K,233.38 ± 9.5 J/K/kg
same,specific heat capacity,193.08 K,233.43 ± 9.5 J/K/kg
same,specific heat capacity,200.95 K,233.83 ± 9.5 J/K/kg
same,specific heat capacity,200.99 K,233.88 ± 9.5 J/K/kg
same,specific heat capacity,201 K,233.68 ± 9.5 J/K/kg
same,specific heat capacity,201.42 K,236.77 ± 9.9 J/K/kg
same,specific heat capacity,201.44 K,236.67 ± 9.9 J/K/kg
same,specific heat capacity,201.53 K,234.69 ± 9.5 J/K/kg
same,specific heat capacity,206.43 K,237.94 ± 9.7 J/K/kg
same,specific heat capacity,206.46 K,237.84 ± 9.7 J/K/kg
same,specific heat capacity,206.54 K,236.01 ± 9.6 J/K/kg
same,specific heat capacity,208.87 K,236.16 ± 9.6 J/K/kg
same,specific heat capacity,208.91 K,236.52 ± 9.6 J/K/kg
same,specific heat capacity,208.92 K,236.37 ± 9.6 J/K/kg
same,specific heat capacity,211.46 K,238.9 ± 9.7 J/K/kg
same,specific heat capacity,211.47 K,238.9 ± 9.7 J/K/kg
same,specific heat capacity,211.55 K,236.98 ± 9.6 J/K/kg
same,specific heat capacity,216.49 K,239.91 ± 9.7 J/K/kg
same,specific heat capacity,216.55 K,238.55 ± 9.7 J/K/kg
same,specific heat capacity,216.78 K,238.34 ± 9.7 J/K/kg
same,specific heat capacity,216.82 K,238.39 ± 9.7 J/K/kg
same,specific heat capacity,216.83 K,238.19 ± 9.7 J/K/kg
same,specific heat capacity,221.51 K,241.18 ± 9.8 J/K/kg and 241.33 ± 9.8 J/K/kg and 241.13 ± 9.8 J/K/kg
same,specific heat capacity,221.53 K,241.03 ± 9.8 J/K/kg
same,specific heat capacity,221.59 K,239.61 ± 9.7 J/K/kg
same,specific heat capacity,224.71 K,241.13 ± 9.8 J/K/kg
same,specific heat capacity,224.75 K,241.28 ± 9.8 J/K/kg
same,specific heat capacity,224.76 K,240.98 ± 9.8 J/K/kg
same,specific heat capacity,225.58 K,241.79 ± 9.8 J/K/kg
same,specific heat capacity,225.61 K,241.84 ± 9.8 J/K/kg
same,specific heat capacity,226.54 K,242.25 ± 9.8 J/K/kg and 242.35 ± 9.8 J/K/kg
same,specific heat capacity,226.61 K,240.73 ± 9.8 J/K/kg
same,specific heat capacity,229.65 K,241.89 ± 9.8 J/K/kg
same,specific heat capacity,229.68 K,241.44 ± 9.8 J/K/kg
same,specific heat capacity,231.54 K,243.26 ± 9.9 J/K/kg
same,specific heat capacity,231.76 K,241.44 ± 9.8 J/K/kg
same,specific heat capacity,232.62 K,240.42 ± 9.8 J/K/kg
same,specific heat capacity,232.68 K,239.97 ± 9.7 J/K/kg and 240.47 ± 9.8 J/K/kg
same,specific heat capacity,233.72 K,242.04 ± 9.8 J/K/kg
same,specific heat capacity,233.75 K,241.94 ± 9.8 J/K/kg
same,specific heat capacity,236.76 K,242.3 ± 9.8 J/K/kg
same,specific heat capacity,237.69 K,243.11 ± 9.9 J/K/kg
same,specific heat capacity,237.73 K,242.45 ± 9.8 J/K/kg
same,specific heat capacity,240.54 K,241.54 ± 9.8 J/K/kg
same,specific heat capacity,240.6 K,241.28 ± 9.8 J/K/kg and 241.49 ± 9.8 J/K/kg
same,specific heat capacity,241.59 K,244.22 ± 10 J/K/kg
